Assay results reported in patent US20150322033A1, “ANTIBACTERIAL AGENT” (priority 2012, published 2015).
Converted amounts (≈) assume the structure as drawn. Like-named read-outs stand apart in the source and are kept apart here.

Legend:
[1] = test system: S. aureus FDA209P (ATCC 6538P); test: microbe, parasite or virus in culture; assay type: cell-based, Staphylococcus aureus; details: for MIC: Staphylococcus aureus
Protocol: (§1) S. aureus Mu50 (refer to Hiramatsu, K., Hanaki H., et al., J. Antimicrob. Chemother., 1997, 40(1), 135-6) or S. aureus FDA209P (ATCC 6538P) was cultured overnight at 37° C. in 4 mL of TBS (Tryptical Soy Broth, produced by Becton Dickinson) with shaking. After completion of the culture, the cells were suspended in fresh TBS to prepare a cell suspension showing an absorbance of 0.3 at 578 nm. Then, the cell suspension was diluted 500 times with CAMHB mentioned above.
(§2) CAMHB containing each test compound at each of the aforementioned concentrations was added to each well of a 96-well plate in a volume of 50 μL/well, the aforementioned cell suspension diluted 500 time was added to the well in a volume of 50 μL/well, and stationary culture was carried out overnight at 37° C.
(§3) MIC values (mg/L) of the flavones and quinolones against the strains were measured in the same manner as that of the measurement of MIC of Example 1, except that CAMHB containing each of the aforementioned flavones and quinolones prepared in Example 2 was used instead of CAMHB containing each of the test compounds.
(§4) MIC values of the flavones and quinolone for the strains were measured in the same manners as those of Example 1, except that S. aureus Mu50 NR-1 was also used as Staphylococcus aureus in addition to S. aureus FDA209P and S. aureus Mu50, cell suspensions of the strains were prepared.
(§5) In the same manner as that of Example 1, MIC values of M-246, M-21, J-Q21, and J-Q12.1 for Staphylococcus aureus were measured. M-246 and M-21 were obtained as commercial products, and as J-Q21 and J-Q12.1, those synthesized in Examples 6 and 7 were used.

S. aureus Mu50 = test: microbe, parasite or virus in culture; assay type: cell-based, Staphylococcus aureus; details: for MIC (mg/L) Mu50: Example 1, Tables 1 to 10; for MIC: Staphylococcus aureus
Protocol: as §1, §2, §3, §4, §5

[2] = Example 1, Tables 1 to 10, read-out: MIC (mg/L) FDA209P
[3] = MU50, read-out: MIC (mg/L) Mu50, Example 1, Tables 1 to 10

SMILES | MIC (mg/L) FDA209P ([1]; Example 1, Tables 1 to 10) [mg/L] | MIC (mg/L) Mu50 (S. aureus Mu50) [mg/L] | MIC [1, 2] [mg/L] | MIC (S. aureus Mu50; [3]) [mg/L] | also measured
Cc1c(O)cc2oc(-c3ccc(O)c(O)c3)c(O)c(=O)c2c1O [compound 5] | 128 (≈ 405 µM) | 128 (≈ 405 µM) |  |  | 
COc1cc(OC)c2c(=O)c(OC)c(-c3ccc(OC)c(OC)c3)oc2c1 [compound 19] | >128 | >128 |  |  | 
COc1ccc(-c2c(C)oc3cc(O)cc(O)c3c2=O)cc1OC [compound 73] |  |  | 128 (≈ 390 µM) | > 128 | 
O=c1cc(-c2ccccc2)oc2cccc(O)c12 [compound 17] | 128 (≈ 537 µM) | 128 (≈ 537 µM) |  |  | 
COc1ccc(-c2coc3cc(OC(=O)N(C)C)cc(OC)c3c2=O)cc1OC [compound 80] |  |  |  |  | MIC ([1]; read-out: MIC (mg/L) FDA209P): > 128 mg/L; MIC (S. aureus Mu50; MU50, read-out: MIC (mg/L) Mu50): > 128 mg/L
CCOC(=O)c1oc2cc(O)cc(O)c2c(=O)c1-c1ccc(OC)cc1 [compound 71] |  |  | 128 (≈ 359 µM) | 128 (≈ 359 µM) | 
CC(=O)Oc1ccc(-c2coc3cc(OC(C)=O)cc(OC(C)=O)c3c2=O)cc1 [compound 82] |  |  | > 128 | > 128 | 
O=c1cc(-c2ccc(O)cc2)oc2c(C3CC3)c(O)ccc12 [J-Q21, 8-Cyclopropyl-7-hydroxy-2-(4-hydroxyphenyl)chromen-4-one] |  |  |  |  | MIC ([1]; Example 8, Table 17, read-out: MIC FDA209P): > 128 mg/L; MIC (S. aureus Mu50; MU50, read-out: MIC Mu50, Example 8, Table 17): 4 mg/L (≈ 13.6 µM)
COc1ccc(-c2coc3cc(OC4OC(CO)C(O)C(O)C4O)cc(O)c3c2=O)cc1 (centres unmarked) [compound 110] | 128 (≈ 287 µM) | 128 (≈ 287 µM) |  |  | 
O=c1cc(-c2ccc(O)cc2)oc2cccc(O)c12 [compound 70] |  |  | 128 (≈ 503 µM) | 128 (≈ 503 µM) | 
COc1ccc(-c2oc3cc(OC)c(OC)c(O)c3c(=O)c2OC)cc1O [compound 33] |  |  | > 128 | 128 (≈ 342 µM) | 
O=c1cc(-c2ccc(O)c(O)c2)oc2c(C3OC(CO)C(O)C(O)C3O)c(O)cc(O)c12 (centres unmarked) [compound 60] | >128 | >128 |  |  | 
CCOC(=O)c1oc2cc(OC)cc(O)c2c(=O)c1-c1ccc(OC)cc1 [compound 91] |  |  | > 128 | > 128 | 
COc1cc(O)c(CN(C)C)c2oc(-c3ccccc3)cc(=O)c12 [compound 47] |  |  | 128 (≈ 393 µM) | > 128 | 
CC(=O)Oc1cc(OC(C)=O)c2c(=O)c(-c3ccc4c(c3)OCCO4)coc2c1 [compound 104] |  |  | 128 (≈ 323 µM) | 64 (≈ 161 µM) | 
O=c1c(-c2ccc(O)cc2)coc2cc(O)cc(O)c12 [compound 113] |  |  | 128 (≈ 474 µM) | 128 (≈ 474 µM) | 
COc1ccc(-c2coc3cc(O)cc(OC)c3c2=O)cc1OC [compound 108] |  |  | 128 (≈ 390 µM) | 128 (≈ 390 µM) | 
COc1cc(OC)c2c(=O)c(-c3ccc(OC4OC(CO)C(O)C(O)C4O)cc3)coc2c1 (centres unmarked) [compound 85] | >128 | >128 |  |  | 
CC1(C)C=Cc2c(cc3oc(-c4ccc(O)cc4)cc(=O)c3c2O)O1 [compound 44] |  |  | > 128 | > 128 | 
COc1cc(O)c(CN2CC(C)CC(C)C2)c2oc(-c3ccccc3)cc(=O)c12 (centres unmarked) [compound 49] | 128 (≈ 325 µM) | >128 |  |  | 
CC1(CO)C=Cc2c(cc3occ(-c4ccc(O)cc4)c(=O)c3c2O)O1 (centres unmarked) [compound 122] |  |  | > 128 | > 128 | 
CCOc1ccc(-c2coc3cc(OCC)cc(OCC)c3c2=O)cc1 [compound 75] |  |  | > 128 | > 128 | 
